Laboratory results reported in patent US20120010178A1, “METHODS AND COMPOUNDS FOR TREATMENT OF NEURODEGENERATIVE DISORDERS” (PRESIDENT AND FELLOWS OF HARVARD COLLEGE, priority 2008, published 2012).
Entries after “also recorded” stand apart in the source; their conditions may differ. Values belong to the molecule of their own block, whether it stands above or below them.

Legend:
[1] = test system: PC12 cells; conditions: cited from earlier work
[2] = test system: SMN; experiment: High-content fibroblast screen for compounds that modulate SMN level; conditions: human fibroblasts, 2-3 days with compound;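 note: Anti-SMN immunostaining with confocal imaging of nuclear and cytoplasmic SMN and gem counts, tested at 0.1, 1 and 10 uM, fold change relative to negative control wells on each plate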
Method: Human fibroblasts were incubated for 2-3 days with compounds from annotated collections. Cells were fixed and stained with an anti-SMN antibody. Confocal imaging was used to quantify SMN fluorescence in nucleus and cytoplasm and count Gems. Data were collected and subsequently analyzed by clustering compounds by suspected mechanism of action and chemical structure.
Following optimization of assay conditions on day 0, total of 500 human fibroblasts (GM09677 line) per well were seeded in 384-well plates, on day 3 they were treated with compounds (robot CyBio) from the annotated collections and on the 5 day plates were fixed and stained (robot MAPD) with an anti-SMN antibody and secondary antibody conjugated with 448 fluorophore (FIG. 19a). Compounds from the libraries were added in duplicate at three final concentrations of 10, 1 and 0.1 uM.
SMN detection was done on the automated confocal microscope Opera PerkinElmer with separate fluorescent exposures to 488 nM laser for and a UV light source to detect nuclei stained with Hoechst 33258 with a 20× objective.
After scanning on the Opera, an XML file extraction workflow, designed with Inforsense KDE, was used to assemble the data from multiple replicate plates of each HCS experiment including the quantitative parameters described above and chemical identities, chemical concentrations and indications of which wells were used for positive and negative controls. […] The fold-induction of SMN intensity values for each well treated with a library chemical were normalized to the SMN average intensity in multiple negative control wells per plate.
Since it is not known which form of SMN increase is the most essential, hits that scored in a duplicate at least in two different parameters greater than 1.3 fold at any of the three concentrations were selected (FIG. 19d). […] Further, 220 compounds were screened in the absence of anti-SMN primary antibody with the same assay conditions, to filter out the fluorescent compounds.

[3] = test system: SMN; experiment: SMN levels in human motor neurons derived from patient iPS cells; assay type: cell-based; conditions: two days after treatment
Method: GFP expressing motor neurons were derived from an […] patient iPS cells as described below. After growing for approximately 1 week, motor neurons were treated with allsterpaullone. Two days after treatment with allsterpaullone, cells were fixed and stained with SMN antibody or GFP antibody. […] Induced pluripotent stem cells were generated from an SMA patient fibroblast line from Coriell (GM09677) and differentiated into motor neurons according to methods adapted from Dimos, J. T., et. al. Science (2008) 321, 1218-122, Epub Jul. 31, 2008).

[4] = test system: ES-cell derived Motor Neurons with SMN knockdown; experiment: Motor neuron survival assay after SMN knockdown (shRNA lentivirus); assay type: cell-based, mouse; conditions: for surviving motor neurons compared to DMSO: 1.25 and 2.5 uM
From the text: To test for survival, motor neurons were infected with three lentiviral constructs acquired from Open Biosystems (pGIPZ): a non-silencing (NS) shRNA and two with unique shRNA sequences directed against the Smn transcript. […] Quantification of SMN knockdown were made in 3T3 cells (FIGS. 39a-39b) and in motor neurons by sorting ES cell derived motor neurons (cherry positive) infected with the pGIPZ lentiviruses (GFP positive cells) by FACS and quantifying the amount of SMN by Western blot.
Effect of reduced SMN levels on motor neuron survival was investigated next. Motor neurons were plated and infected with the various lentiviral constructs. […] To test the effects of SMN increasing compounds, we added them to motor neurons two days after lentiviral infection. Over the course of the subsequent three days, we counted live cherry expressing motor neurons on a daily basis.
Mouse ES-cells expressing cherry fluorescent protein (CFP) under control of a Hb9 promoter, a motor neuron specific transcription factor, were used to differentiate motor neurons as described in Example 31. Motor neurons were infected with the three constructs that were acquired from Open Biosystems (pGIPZ): a non-silencing (NS) shRNA and two constructs with unique shRNA sequences directed against the Smn transcript. […] First we performed motor neuron survival assays to test whether reduced levels of SMN will affect viability of these motor neurons. We differentiated mES cells with Hb9-Chemy Fluorescent Protein (Hb9-CFP) in to motor neurons expressing CFP, that later we dissociated and plated on DIV0. Cells were infected with the NS pGIPZ virus, SMN#1 pGIPZ virus, SMN#2 pGIPZ virus or no virus on DIV 1. The percentage of surviving motor neuron was normalized to the uninfected control culture. […] The percentage of surviving motor neuron was normalized to the culture infected with control non-targeting shRNA.

[5] = test system: kinase phosphorylation sites (Akt, RSK1, p38, GSKa/b, Erk1/2); experiment: Phospho-kinase antibody array of PDGF treated fibroblasts; assay type: cell-based, human; conditions: 50 ng/ml, 30 min
Method: Although there is much more known about growth factor specificity and downstream pathways that they activate, whether PDGF effect on SMN was mediated through the binding to the PDGFR was tested next. The SMN-increasing effects of PDGF were blocked by DMPQ and […], two small molecules inhibitors of the PDGF receptor (FIG. 21a). In addition PDGF neutralizing antibody titration were performed in the cells incubated with 20 ng/ml platelet-derived PDGF. Depending on the antibody concentration, gradient of SMN level decrease reaching 40% was observed (FIG. 21b). Moreover, as might be predicted, since there are appreciable levels of PDGF in the media serum in which the fibroblasts are normally maintained, simply adding PDGFR inhibitors DMPQ and AG-1296 to the media decreases the “basal” level of SMN in these cells down to 15-20%, (FIG. 22). Same effect was reproduced by adding PDGF neutralizing antibody to the media, confirming that PDGF can be a physiologically relevant regulator of SMN levels (FIG. 21c). […]
Cellular lysates from fibroblasts GM09677 treated with 50 ng/ml of PDGF-BB for 30 minutes and untreated control fibroblasts were collected and hybridized with the phosphor-kinase array membranes accordingly to the manufacture protocol (R&D Systems). […] Levels of phosphorylated protein were detected by measurement on the X-ray film (Kodak).

[6] = test system: motor neurons; experiment: Motor neuron survival (mouse motor neurons, compound treatment); assay type: cell-based
Method: Mouse motor neurons were treated with […] inhibitors. The levels of both cytoplasmic and nuclear SMN were detected and quantified using the method described in Example 2. The results shown in FIG. 14b indicate that […] inhibitors increase motor neuron survival.
Another way of assessing motor neuron survival is by withdrawing the neurotrophic factors from the media. Briefly, motor neurons are grown in media containing neurotrophic factors. The neurotrophic factors are then withdrawn from the growth media, e.g., cells transferred to media having no neurotrophic factors or neurotrophic factor containing media exchanged with neurotrophic factors lacking media. The compound of interest is added and motor neurons are counted on a daily basis.

Molecule: O=C1Cc2c([nH]c3ccc([N+](=O)[O-])cc23)-c2ccccc2N1 [Alsterpaullone]
- protection from EGTA induced death [1]: able to protect PC12 cells from EGTA induced death
- SMN level in fibroblast screen (increase or decrease) [2]: SMN is increase
- SMN levels in human iPS derived motor neurons (in words) [3]: Increased SMN levels
- survival of motor neurons after SMN knockdown (in words) ([4]; 1.25, 2.5 or 5 uM): able to rescue the survival; also recorded: rescues the survival of SMN-KD Motor Neurons up to control level
- surviving motor neurons compared to DMSO ([4]; by the second day): twice the amount of surviving cells
- surviving motor neurons compared to DMSO ([4]; by the third day): three fold difference

- effect on Erk1 and 2 kinase phosphorylation [5]: little effect
Molecule: PDGF
- kinases phosphorylated upon stimulation [5]: phosphorylation of Akt, RSK1, p38 and GSKa/b
- motor neuron survival (in words) [6]: no effect
